Assay results taken from patent publication US7713994B2 (Wyeth LLC, priority 2005, dated 2010).

Columns and labels:
BT474 = assay: Cytotoxicity assay (SRB), BT474; type: cell-based; conditions: Homo sapiens, BT-474, 144 h, BT474 cells, 6 days, SRB; read-out: In Vitro Cellular Activity IC50 BT474
In short: (§1)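 Cells were seeded overnight in RPMI 1640 with 5% FBS at 37 °C, 7% CO2 (12000/well BT474, 4000 HCT-116, 6000 LoVo, 6000 MCF-7), then exposed to compound dilutions for 3 days (6 days for BT474). Survival versus untreated controls was measured by TCA fixation and SRB staining at 540 nm.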

MCF-7 = assay: Cytotoxicity assay (SRB), MCF-7; type: cell-based; conditions: Homo sapiens, MCF7, 72 h, MCF-7 cells, 3 days, SRB; read-out: In Vitro Cellular Activity IC50 MCF-7
In short: as §1

cyclin B/CDK1 enzyme = molecular target: T1, cyclin B/CDK1 enzyme (Homo sapiens, UniProt P06493); assay: CDK1 ELISA kinase assay (phospho-Rb ser 795 detection); type: biochemical; conditions: In Vitro Enzyme Assay, cyclin B/CDK1, read-out: CDK1 IC50
T1 construct: purchased New England BioLabs; host or cells: Sf9 insect cells, recombinant baculovirus
T1 sequence (P06493 whole entry): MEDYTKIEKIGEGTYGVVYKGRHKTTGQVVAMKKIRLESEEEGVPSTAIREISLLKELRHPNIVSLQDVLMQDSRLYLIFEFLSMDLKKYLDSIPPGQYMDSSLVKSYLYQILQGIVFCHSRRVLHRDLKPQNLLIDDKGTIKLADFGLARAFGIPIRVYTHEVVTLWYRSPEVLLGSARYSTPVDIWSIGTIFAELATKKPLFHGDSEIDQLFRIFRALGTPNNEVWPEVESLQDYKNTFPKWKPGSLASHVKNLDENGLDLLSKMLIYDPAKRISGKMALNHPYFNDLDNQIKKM
T1 sequence (P14635 whole entry partner): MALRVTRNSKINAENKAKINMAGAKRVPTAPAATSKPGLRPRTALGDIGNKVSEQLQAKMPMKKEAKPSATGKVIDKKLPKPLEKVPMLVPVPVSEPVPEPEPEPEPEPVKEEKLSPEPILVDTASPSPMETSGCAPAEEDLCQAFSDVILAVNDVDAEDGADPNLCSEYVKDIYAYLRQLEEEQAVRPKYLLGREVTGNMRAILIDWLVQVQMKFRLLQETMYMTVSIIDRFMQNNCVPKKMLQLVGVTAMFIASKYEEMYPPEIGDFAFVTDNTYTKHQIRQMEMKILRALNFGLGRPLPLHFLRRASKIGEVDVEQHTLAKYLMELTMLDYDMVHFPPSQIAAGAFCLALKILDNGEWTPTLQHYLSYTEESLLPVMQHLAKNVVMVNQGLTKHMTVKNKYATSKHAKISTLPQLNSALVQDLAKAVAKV
In short: (§2)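 Inhibition was derived from A450 relative to control wells lacking compound, following an anti-phospho-Rb Ser795 sandwich of HRP detection. The reactions combined coated GST-Rb fragment, 200 μM ATP and baculovirus-expressed cyclin/CDK enzymes, incubated for 1 h at 30° C.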

cyclin E/CDK2 enzyme = molecular target: T2, cyclin E/CDK2 enzyme (Homo sapiens, UniProt P24941); assay: CDK2 ELISA kinase assay (phospho-Rb ser 795 detection); type: biochemical; conditions: In Vitro Enzyme Assay, cyclin E/CDK2, read-out: CDK2 IC50
T2 construct: made in house; host or cells: Sf9 insect cells, recombinant baculovirus
In short: as §2

HCT-116 = assay: Cytotoxicity assay (SRB), HCT-116; type: cell-based; conditions: Homo sapiens, HCT-116, 72 h, HCT116 cells, 3 days, SRB; read-out: In Vitro Cellular Activity IC50 HCT116
In short: as §1

LoVo = assay: Cytotoxicity assay (SRB), LoVo; type: cell-based; conditions: Homo sapiens, LoVo, 72 h, LoVo cells, 3 days, SRB; read-out: In Vitro Cellular Activity IC50 LOVO
In short: as §1

cyclin D1/cdk 4 enzyme = molecular target: T3, cyclin D1/cdk 4 enzyme (Homo sapiens, UniProt P11802); assay: CDK4 ELISA kinase assay (phospho-Rb ser 795 detection); type: biochemical; conditions: In Vitro Enzyme Assay, cyclin D1/cdk 4, read-out: CDK4 IC50
T3 construct: made in house; host or cells: Sf9 insect cells, recombinant baculovirus
T3 sequence (P11802 whole entry, species assumed): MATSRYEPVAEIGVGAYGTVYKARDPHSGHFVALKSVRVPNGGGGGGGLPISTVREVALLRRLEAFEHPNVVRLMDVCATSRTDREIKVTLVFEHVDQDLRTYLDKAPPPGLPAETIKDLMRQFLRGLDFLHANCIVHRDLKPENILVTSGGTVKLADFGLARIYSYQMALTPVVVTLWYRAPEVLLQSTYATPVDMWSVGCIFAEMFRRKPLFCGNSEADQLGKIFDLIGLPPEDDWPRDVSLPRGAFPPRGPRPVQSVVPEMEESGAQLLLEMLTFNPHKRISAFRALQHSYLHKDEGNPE
T3 sequence (P24385 whole entry partner, species assumed): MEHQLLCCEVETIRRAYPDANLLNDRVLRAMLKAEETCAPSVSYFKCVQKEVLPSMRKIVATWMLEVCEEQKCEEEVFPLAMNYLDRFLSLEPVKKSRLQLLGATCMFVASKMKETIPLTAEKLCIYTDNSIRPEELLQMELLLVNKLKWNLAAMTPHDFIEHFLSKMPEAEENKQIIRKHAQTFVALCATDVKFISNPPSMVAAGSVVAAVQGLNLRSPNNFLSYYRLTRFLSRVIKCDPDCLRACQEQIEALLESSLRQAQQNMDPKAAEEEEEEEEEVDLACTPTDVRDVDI
In short: as §2

SMILES | IC50 (BT474) | IC50 (MCF-7) | IC50 (cyclin B/CDK1 enzyme) | IC50 (cyclin E/CDK2 enzyme) | IC50 (HCT-116) | IC50 (LoVo) | IC50 (cyclin D1/cdk 4 enzyme)
COc1ccc(-c2ccc3c(c2)C(=CNCc2ccc(O)c(O)c2)C(=O)NC3=O)cc1OC [Example 813, 4-[(3,4-Dihydroxy-benzylamino)-methylene]-6-(3,4-dimethoxy-phenyl)-4H-isoquinoline-1,3-dione] | 35.8 µM | 29.7 µM | > 50 µM | 33.1 µM | 19.8 µM | 12.7 µM | 0.31 µM
CN(C)c1ccc(-c2ccc3c(c2)C(=CNCc2ccc(O)c(O)c2)C(=O)NC3=O)cc1 [Example 816, 4-[(3,4-Dihydroxy-benzylamino)-methylene]-6-(4-dimethylamino-phenyl)-4H-isoquinoline-1,3-dione] | 4 µM | 10.1 µM | > 50 µM | 24.2 µM | 11.6 µM | 10.2 µM | 0.31 µM
O=C1NC(=O)c2ccc(-c3ccc(CO)cc3)cc2C1=CNCc1ccc(O)c(O)c1 [Example 817, 4-[(3,4-Dihydroxy-benzylamino)-methylene]-6-(4-hydroxymethyl-phenyl)-4H-isoquinoline-1,3-dione] | 16.2 µM | 24.9 µM | 7 µM | 7 µM | 46.9 µM | 34.9 µM | 0.04 µM
O=C1NC(=O)c2ccc(-c3ccc(OC(F)(F)F)cc3)cc2C1=CNCc1ccc(O)c(O)c1 [Example 818, 4-[(3,4-Dihydroxy-benzylamino)-methylene]-6-(4-trifluoromethoxy-phenyl)-4H-isoquinoline-1,3-dione] | 22.9 µM | 10.5 µM | 36.3 µM | 30.3 µM | 11.7 µM | 7.4 µM | 0.79 µM
O=C1NC(=O)c2ccc(-c3cccc([N+](=O)[O-])c3)cc2C1=CNCc1ccc(O)c(O)c1 [Example 820, 4-[(3,4-Dihydroxy-benzylamino)-methylene]-6-(3-nitro-phenyl)-4H-isoquinoline-1,3-dione] | > 50 µM | > 50 µM | > 50 µM | 27.1 µM | 41.5 µM | 47.9 µM | 2.1 µM
Nc1cccc(-c2ccc3c(c2)C(=CNCc2ccc(O)c(O)c2)C(=O)NC3=O)c1 [Example 821, 6-(3-Amino-phenyl)-4-[(3,4-dihydroxy-benzylamino)-methylene]-4H-isoquinoline-1,3-dione] | 25.1 µM | 27.2 µM | 24.2 µM | 20.7 µM | 35.9 µM | 50.1 µM | 0.14 µM
CC(=O)Nc1cccc(-c2ccc3c(c2)C(=CNCc2ccc(O)c(O)c2)C(=O)NC3=O)c1 [Example 822, N-(3-{4-[(3,4-Dihydroxy-benzylamino)-methylene]-1,3-dioxo-1,2,3,4-tetrahydro-isoquinolin-6-yl}-phenyl)-acetamide] | 11 µM | 16.8 µM | 46.5 µM | 18.9 µM | 27.2 µM | 47.9 µM | 0.15 µM
O=C1NC(=O)c2ccc(-c3ccc(Cl)cc3Cl)cc2C1=CNCc1ccc(O)c(O)c1 [Example 823, 6-(2,4-Dichloro-phenyl)-4-[(3,4-dihydroxy-benzylamino)-methylene]-4H-isoquinoline-1,3-dione] | 21.4 µM | 14.8 µM | 9.4 µM | 2.4 µM | 11.9 µM | 12.3 µM | 0.22 µM
COc1ccc(CNC=C2C(=O)NC(=O)c3ccc(C=Cc4ccncc4)cc32)cc1O [Example 824, 4-[(3-Hydroxy-4-methoxy-benzylamino)-methylene]-6-(2-pyridin-4-yl-vinyl)-4H-isoquinoline-1,3-dione] | > 50 µM | 33.2 µM | > 50 µM | 34.7 µM | 27.5 µM | > 50 µM | 0.01 µM
COc1ccc(CNC=C2C(=O)NC(=O)c3ccc(C=Cc4ccccc4)cc32)cc1O [Example 825, 4-[(3-Hydroxy-4-methoxy-benzylamino)-methylene]-6-styryl-4H-isoquinoline-1,3-dione] | 24.7 µM | 12.3 µM | > 50 µM | 36.3 µM | 11.9 µM | 22.1 µM | 0.02 µM
COc1ccc(CNC=C2C(=O)NC(=O)c3ccc(C=CCc4cccc(OC)c4O)cc32)cc1O [Example 827, 4-[(3-Hydroxy-4-methoxy-benzylamino)-methylene]-6-[3-(2-hydroxy-3-methoxy-phenyl)-propenyl]-4H-isoquinoline-1,3-dione] | 26.5 µM | 17.5 µM | > 50 µM | 45.5 µM | 10.8 µM | 18.1 µM | 0.12 µM
COc1ccc(CNC=C2C(=O)NC(=O)c3ccc(-c4ccccc4)cc32)cc1O [Example 832, 4-[(3-Hydroxy-4-methoxy-benzylamino)-methylene]-6-phenyl-4H-isoquinoline-1,3-dione] | 14.9 µM | 11.8 µM | 34.7 µM | 25.9 µM | 9.9 µM | 8.5 µM | 0.01 µM
COc1ccc(-c2ccc3c(c2)C(=CNCc2ccc(OC)c(O)c2)C(=O)NC3=O)cc1 [Example 833, 4-[(3-Hydroxy-4-methoxy-benzylamino)-methylene]-6-(4-methoxy-phenyl)-4H-isoquinoline-1,3-dione] | 25.1 µM | 26.5 µM | > 50 µM | 15.1 µM | 16.9 µM | 19.2 µM | 0.01 µM
COc1ccc(CNC=C2C(=O)NC(=O)c3ccc(-c4ccc5[nH]ccc5c4)cc32)cc1O [Example 835, 4-[(3-Hydroxy-4-methoxy-benzylamino)-methylene]-6-(1H-indol-5-yl)-4H-isoquinoline-1,3-dione] | 11.7 µM | 12.6 µM | 35.5 µM | 40.6 µM | 10 µM | 11.3 µM | 0.04 µM
COc1ccc(CNC=C2C(=O)NC(=O)c3ccc(-c4ccc[nH]4)cc32)cc1O [Example 836, 4-[(3-Hydroxy-4-methoxy-benzylamino)-methylene]-6-(1H-pyrrol-2-yl)-4H-isoquinoline-1,3-dione] | 12.8 µM | 17.7 µM | 28.3 µM | 15.4 µM | 12.7 µM | 6.8 µM | 0.01 µM
COc1ccc(CNC=C2C(=O)NC(=O)c3ccc(-c4ccco4)cc32)cc1O [Example 837, 6-Furan-2-yl-4-[(3-hydroxy-4-methoxy-benzylamino)-methylene]-4H-isoquinoline-1,3-dione] | 1.5 µM | 3.6 µM | > 50 µM | 24.2 µM | 10.6 µM | 8.5 µM | 0.02 µM
O=C1NC(=O)c2ccc(-c3ccc[nH]3)cc2C1=CNc1ccc(CN2CCCC2)cc1 [Example 838, 4-[(4-Pyrrolidin-1-ylmethyl-phenylamino)-methylene]-6-(1H-pyrrol-2-yl)-4H-isoquinoline-1,3-dione] | 23.5 µM | 8.2 µM | 45.5 µM | 23.6 µM | 7.2 µM | 17.2 µM | 0.15 µM
N#Cc1ccc(-c2ccc3c(c2)C(=CNc2ccc(CN4CCCC4)cc2)C(=O)NC3=O)cc1 [Example 839, 4-{1,3-Dioxo-4-[(4-pyrrolidin-1-ylmethyl-phenylamino)-methylene]-1,2,3,4-tetrahydro-isoquinolin-6-yl}-benzonitrile] | 27.2 µM | 21.6 µM | > 50 µM | 38.8 µM | 14.1 µM | > 50 µM | 3.3 µM
O=C1NC(=O)c2ccc(-c3ccc(CO)cc3)cc2C1=CNc1ccc(CN2CCCC2)cc1 [Example 840, 6-(4-Hydroxymethyl-phenyl)-4-[(4-pyrrolidin-1-ylmethyl-phenylamino)-methylene]-4H-isoquinoline-1,3-dione] | > 50 µM | 40 µM | > 50 µM | 31 µM | 19 µM | > 50 µM | 3 µM
COCCn1ccc(-c2ccc3c(c2)C(=CNc2ccc(N4CCN(C)CC4)cc2)C(=O)NC3=O)c1 [Example 843, 6-[1-(2-Methoxy-ethyl)-1H-pyrrol-3-yl]-4-{[4-(4-methyl-piperazin-1-yl)-phenylamino]-methylene}-4H-isoquinoline-1,3-dione] | > 50 µM | 47.1 µM | > 50 µM | > 50 µM | 54.3 µM | > 50 µM | 0.18 µM
